Assay results as given in PubChem BioAssay AID652224 (The Scripps Research Institute Molecular Screening Center, 2013).
Calls of active or inactive are those of the source.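 The calls were made as follows: active = at least 70% inhibition of the phosphatase PP5 at 50 µM; inactive = inhibition below 70% at 50 µM.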

molecular target: Serine/threonine-protein phosphatase 5 (Homo sapiens) (UniProt P53041); assay: inhibition of human PP5 catalytic domain – biochemical, fluorescence, OMFP substrate, powder samples, selectivity assay for PP1 inhibitor project, late-stage follow-up (AID 652224); settings: purified PP5c, OMFP dephosphorylation fluorescence; at 50 µM; hits give high values
Sequence (P53041 whole entry, looked up, the tested form may be a part): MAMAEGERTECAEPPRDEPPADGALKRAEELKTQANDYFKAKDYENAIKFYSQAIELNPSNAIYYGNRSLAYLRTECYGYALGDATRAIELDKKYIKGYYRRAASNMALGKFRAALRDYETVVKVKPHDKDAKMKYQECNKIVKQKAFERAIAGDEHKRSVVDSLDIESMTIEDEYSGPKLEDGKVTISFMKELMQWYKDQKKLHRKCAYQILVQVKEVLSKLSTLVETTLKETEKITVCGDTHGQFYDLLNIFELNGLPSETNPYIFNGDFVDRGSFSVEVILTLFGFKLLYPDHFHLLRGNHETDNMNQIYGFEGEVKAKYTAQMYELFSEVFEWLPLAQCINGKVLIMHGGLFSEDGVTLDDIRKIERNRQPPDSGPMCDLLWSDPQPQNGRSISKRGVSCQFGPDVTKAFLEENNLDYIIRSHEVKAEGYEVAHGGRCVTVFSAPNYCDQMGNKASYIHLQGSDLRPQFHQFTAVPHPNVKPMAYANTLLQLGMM

| Structure (SMILES) | inhibition |
| --- | --- |
| Oc1c(CN2CCN(c3ccccn3)CC2)cc(Cl)c2cccnc12 | 32.4% (inactive) |
| CC(C)(C)OC(=O)N1CCN(C(c2ccccn2)c2cc(Cl)c3cccnc3c2O)CC1 (stereo unspecified) | 37.1% (inactive) |
| Oc1c(C(NC2CCCCC2)c2ccccn2)ccc2cccnc12 (stereo unspecified) | 36.3% (inactive) |
| CN1CCN(C(c2ccccn2)c2cc(Cl)ccc2O)CC1 (stereo unspecified) | 4.27% (inactive) |
| CN1CCN(C(c2cccs2)c2cc(Cl)c3cccnc3c2O)CC1 (stereo unspecified) | 24.7% (inactive) |
| COc1cccc(C(c2ccc3cccnc3c2O)N2CCN(C)CC2)n1 (stereo unspecified) | -1.09% (inactive) |
| COc1ccnc(C(c2ccc3cccnc3c2O)N2CCN(C)CC2)c1 (stereo unspecified) | 58.8% (inactive) |
| CC1CCN(C(c2ccccn2)c2cc(Cl)c3cccnc3c2O)CC1 (stereo unspecified) | 68.5% (inactive) |
| Oc1c(C(c2ccccn2)N2CCC(Cc3ccccc3)CC2)cc(Cl)c2cccnc12 (stereo unspecified) | 24.6% (inactive) |
| CN1CCN(C(c2ncccn2)c2ccc3cccnc3c2O)CC1 (stereo unspecified) | -0.77% (inactive) |
| Oc1c(Cc2ccccn2)ccc2cccnc12 | 27% (inactive) |
| Oc1c(C(c2ccccn2)N2CCCC2)ccc2cccnc12 (stereo unspecified) | 45.2% (inactive) |
| CN1CCN(C(c2nccs2)c2cc(Cl)c3cccnc3c2O)CC1 (stereo unspecified) | 35% (inactive) |
| CN1CCN(C(c2ccccn2)c2cc(Cl)c3cccnc3c2O)CC1 (stereo unspecified) | 75.8% |
| CN1CCN(C(c2ccc(C(F)(F)F)cn2)c2ccc3cccnc3c2O)CC1 (stereo unspecified) | 61.9% (inactive) |
| CN1CCN(C(c2ccccc2)c2cc(Cl)c3cccnc3c2O)CC1 (stereo unspecified) | 15.5% (inactive) |
| COCOc1c(C(c2ccccn2)N2CCN(C)CC2)ccc2cccnc12 (stereo unspecified) | -6.11% (inactive) |
| CN1CCN(C(c2ccncc2)c2cc(Cl)c3cccnc3c2O)CC1 (stereo unspecified) | 9.09% (inactive) |

| Structure (SMILES) | inhibition |
| --- | --- |
| CN1CCN(C(c2ccc3cccnc3c2O)c2ncccc2C(F)(F)F)CC1 (stereo unspecified) | 29.4% (inactive) |
| CCOC(c1ccccn1)c1cc(Cl)c2cccnc2c1O (stereo unspecified) | 21.5% (inactive) |
| Oc1c(C(c2ccccn2)N2CCN(c3ccccc3F)CC2)cc(Cl)c2cccnc12 (stereo unspecified) | 27% (inactive) |
| CN1CCN(C(c2cccnc2)c2cc(Cl)c3cccnc3c2O)CC1 (stereo unspecified) | 9.84% (inactive) |
| CCN1CCN(C(c2ccccn2)c2cc(Cl)c3cccnc3c2O)CC1 (stereo unspecified) | 67.9% (inactive) |
| Oc1c(CN2CCN(c3ccccc3)CC2)cc(Cl)c2cccnc12 | 21.3% (inactive) |
| Cc1cccc(C(c2ccc3cccnc3c2O)N2CCN(C)CC2)n1 (stereo unspecified) | -2.26% (inactive) |
| Oc1c(C(c2ccccn2)N2CCNCC2)cc(Cl)c2cccnc12 (stereo unspecified) | 14.4% (inactive) |
| Cc1cccnc1C(c1ccc2cccnc2c1O)N1CCN(C)CC1 (stereo unspecified) | 66.1% (inactive) |
| COc1ccc(C(c2ccc3cccnc3c2O)N2CCN(C)CC2)nc1 (stereo unspecified) | 48.5% (inactive) |
| CN1CCN(Cc2cc(Cl)c3cccnc3c2O)CC1 | 20.1% (inactive) |
| Cc1ccc(C(c2ccc3cccnc3c2O)N2CCN(C)CC2)nc1 (stereo unspecified) | 66.2% (inactive) |
| Cc1ccnc(C(c2ccc3cccnc3c2O)N2CCN(C)CC2)c1 (stereo unspecified) | 54.8% (inactive) |
| Oc1c(C(c2ccccn2)N2CCOCC2)cc(Cl)c2cccnc12 (stereo unspecified) | 72.5% |
| CN1CCN(C(c2ccccn2)c2cc(Cl)c3ccccc3c2O)CC1 (stereo unspecified) | 12.1% (inactive) |
| CN1CCC(NC(c2ccccn2)c2ccc3cccnc3c2O)CC1 (stereo unspecified) | 9.57% (inactive) |
| Cc1ccc2ccc(C(c3ccccn3)N3CCN(C)CC3)c(O)c2n1 (stereo unspecified) | 24.3% (inactive) |
| CN1CCN(C(c2ccccn2)c2ccc3cccnc3c2O)CC1 (stereo unspecified) | 49.2% (inactive) |
